These results are taken from patent publication US10138222B2, “Substituted benzamides as RIPK2 inhibitors” (Boehringer Ingelheim International GmbH, priority 2016, dated 2018).

For the experiment, the target named is RIPK2 (Homo sapiens (Human), UniProt O43353). Kind of experiment: RIPK2 inhibition, ADP-Glo Kinase Assay. Format: biochemical. Particulars: 8His-RIPK2 FL enzyme 8 nM, ATP 5 μM, 15 minutes pre-incubation, 60 minutes at 37° C., luminescence. The procedure, abridged: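 Full-length 8His-RIPK2 (8 nM) preincubated 15 min at RT with compound (1% DMSO), then 5 μM ATP added for 60 min at 37 °C in HEPES pH 7.5 buffer with Mg2+/Mn2+. ADP measured by ADP-Glo luminescence; activity expressed as % of vehicle control, no-enzyme wells as low control.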
A general note: ADP-Glo turns the ADP formed in a reaction into a luminescent signal.

Sequence of RIPK2 (O43353 whole entry): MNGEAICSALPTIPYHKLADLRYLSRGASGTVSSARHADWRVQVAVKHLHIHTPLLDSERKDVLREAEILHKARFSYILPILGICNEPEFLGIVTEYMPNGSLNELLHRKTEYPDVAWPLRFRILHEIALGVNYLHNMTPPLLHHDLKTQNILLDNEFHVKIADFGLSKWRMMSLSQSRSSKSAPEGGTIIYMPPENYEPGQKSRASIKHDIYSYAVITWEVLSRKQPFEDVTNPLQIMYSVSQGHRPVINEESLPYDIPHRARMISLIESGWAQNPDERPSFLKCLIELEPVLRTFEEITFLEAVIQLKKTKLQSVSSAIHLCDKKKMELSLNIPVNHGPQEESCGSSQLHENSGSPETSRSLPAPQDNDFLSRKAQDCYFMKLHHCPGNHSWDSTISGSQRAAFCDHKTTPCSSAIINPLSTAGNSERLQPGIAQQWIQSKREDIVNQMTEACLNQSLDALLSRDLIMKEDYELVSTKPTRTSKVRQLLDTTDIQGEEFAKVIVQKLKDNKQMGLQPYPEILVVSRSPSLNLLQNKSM

Take `Cc1ccc(C(=O)NC2CC2)cc1-c1cnn(-c2cncc(C3CC3)c2)c1` [Example 45, N-cyclopropyl-3-[1-(5-cyclopropyl-pyridin-3-yl)-1H-pyrazol-4-yl]-4-methylbenzamide]: the midpoint of inhibition, the IC50, lay at 3.6 nM.

On to `COCC(C)N1CCC(Nc2cncc(-n3cc(-c4cc(C(=O)NC5CC5)ccc4C)cn3)c2)CC1` (stereo not drawn) [Example 156, N-cyclopropyl-3-[1-(5-{[1-(1-methoxypropan-2-yl)piperidin-4-yl]amino}pyridin-3-yl)-1H-pyrazol-4-yl]-4-methylbenzamide], for which half-maximal inhibition (IC50) required 1.6 nM.

Turning to `Cc1ccc(C(=O)NC2CC2)cc1-c1cnn(-c2cncc(NCC3COCCO3)c2)c1` (stereo not drawn) [Example 57, N-cyclopropyl-3-(1-{5-[(1,4-dioxan-2-ylmethyl)amino]pyridin-3-yl}-1H-pyrazol-4-yl)-4-methylbenzamide], the midpoint of inhibition, the IC50, lay at 4.5 nM.

As to `Cc1ccc(C(=O)NC2CC2)cc1-c1cnn(-c2cncc(OC3CCOC3)c2)c1` (stereo not drawn) [Example 145, N-cyclopropyl-4-methyl-3-{1-[5-(oxolan-3-yloxy)pyridin-3-yl]-1H-pyrazol-4-yl}benzamide], the half-inhibitory concentration (IC50) (usually the concentration at which inhibition is half-maximal) is 4.7 nM.

The compound `CN(C)c1cncc(-n2cc(-c3cc(C(=O)NC4CC4)c(F)cc3Cl)cn2)n1` [Example 123, 4-chloro-N-cyclopropyl-5-{1-[6-(dimethylamino)pyrazin-2-yl]-1H-pyrazol-4-yl}-2-fluorobenzamide] yielded a 50% inhibitory concentration (IC50) of 43 nM.

In the case of `CNC(=O)Nc1cncc(-n2cc(-c3cc(C(=O)NC4CC4)ccc3C)cn2)c1` [Example 107, N-cyclopropyl-4-methyl-3-(1-{5-[(methylcarbamoyl)amino]pyridin-3-yl}-1H-pyrazol-4-yl)benzamide], the half-maximal inhibitory concentration (IC50) turned out to be 3.3 nM.

`Cc1ccc(C(=O)NC2CC2)cc1-c1cnn(-c2cncc(C(C)N3CCCCS3(=O)=O)c2)c1` (stereo not drawn) [Example 136, N-cyclopropyl-3-(1-{5-[1-(1,1-dioxo-1λ^6,2-thiazinan-2-yl)ethyl]pyridin-3-yl}-1H-pyrazol-4-yl)-4-methyl-benzamide] showed an IC50 of 43 nM.

On to `Cc1cc(F)c(C(=O)NC2CC2)cc1-c1cnn(-c2cncc(N[C@H]3CCN(C)C[C@H]3F)c2)c1` [Example 169], for which the concentration for half-maximal inhibition (IC50) was 1.3 nM.

For the compound `Cc1ccc(C(=O)NC2CC2)cc1-c1cnn(-c2cncc(C3CCOCC3)n2)c1` [Example 128, N-cyclopropyl-4-methyl-3-{1-[6-(oxan-4-yl)pyrazin-2-yl]-1H-pyrazol-4-yl}benzamide], the IC50 was found to be 94 nM.

In turn, `Cc1ccc(C(=O)NC2CC2)cc1-c1cnn(-c2cncc(C3(C(N)=O)CC3)c2)c1` [Example 101, 3-{1-[5-(1-carbamoylcyclopropyl)pyridin-3-yl]-1H-pyrazol-4-yl}-N-cyclopropyl-4-methylbenzamide] displayed a half-maximal inhibitory concentration (IC50) of 370 nM.

`Cc1cc(F)c(C(=O)NC2CC2)cc1-c1cnn(-c2cncc(OC[C@H]3CCN(C)C3)c2)c1` [Example 172, N-Cyclopropyl-2-fluoro-4-methyl-5-{1-[5-((S)-1-methyl-pyrrolidin-3-ylmethoxy)-pyridin-3-yl]-1H-pyrazol-4-yl}-benzamide]: the IC50 turned out to be 1.8 nM. This IC50 lies about 210-fold lower than the previous one.

Compound `Cc1ccc(C(=O)NC2CC2)cc1-c1cnn(-c2cncc(NC(=O)NC3CCOC3)c2)c1` (stereo not drawn) [Example 142, N-cyclopropyl-4-methyl-3-[1-(5-{[(oxolan-3-yl)carbamoyl]amino}pyridin-3-yl)-1H-pyrazol-4-yl] benzamide] gave a half-maximal inhibitory concentration (IC50) of 3.2 nM.
